According to PubChem BioAssay AID328 (DTP/NCI, 2004):
Several values for one entry are separate records, joined by “and”; a condition that tells them apart may be missing. Equal values may be shown once. Toxic doses and inconclusive results are not listed.

System: BDF1 mice, P388 leukemia ip, median survival T/C
Experiment: NCI In Vivo Anticancer Drug Screen. Data for tumor model P388 Leukemia (intraperitoneal) in B6D2F1 (BDF1) mice
Conditions: endpoint: median survival time, higher = longer survival
Procedure, shortened: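 Each value expresses how treatment altered survival: treated-mouse outcome over vehicle-mouse outcome, both groups bearing the transplanted tumour.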

[1] = dose: 100.0 mg/kg/injection, schedule: Q04DX003 (ip), vehicle: saline with Tween-80
[2] = dose: 200.0 mg/kg/injection, schedule: Q04DX003 (ip), vehicle: saline with Tween-80
[3] = dose: 400.0 mg/kg/injection, schedule: Q04DX003 (ip), vehicle: saline with Tween-80
[4] = dose: 50.0 mg/kg/injection, schedule: Q01DX009 (ip), vehicle: saline with Tween-80
[5] = dose: 200.0 mg/kg/injection, schedule: Q01DX009 (ip), vehicle: saline with Tween-80
[6] = dose: 100.0 mg/kg/injection, schedule: Q01DX009 (ip), vehicle: saline with Tween-80
[7] = dose: 100.0 mg/kg/injection, schedule: Q01DX001 (ip), vehicle: saline
[8] = dose: 100.0 mg/kg/injection, schedule: Q04DX003 (ip), vehicle: saline
[9] = dose: 200.0 mg/kg/injection, schedule: Q01DX001 (ip), vehicle: saline
[10] = dose: 200.0 mg/kg/injection, schedule: Q04DX003 (ip), vehicle: saline
[11] = dose: 400.0 mg/kg/injection, schedule: Q01DX001 (ip), vehicle: saline
[12] = dose: 400.0 mg/kg/injection, schedule: Q04DX003 (ip), vehicle: saline
[13] = dose: 50.0 mg/kg/injection, schedule: Q01DX005 (ip), vehicle: saline with Tween-80
[14] = dose: 100.0 mg/kg/injection, schedule: Q01DX005 (ip), vehicle: saline with Tween-80
[15] = dose: 200.0 mg/kg/injection, schedule: Q01DX005 (ip), vehicle: saline with Tween-80
[16] = dose: 400.0 mg/kg/injection, schedule: Q01DX009 (ip), vehicle: saline with Tween-80

O=c1cc(-c2ccccc2)[nH]c(=S)[nH]1
T/C [1]: 95 % of control
T/C [2]: 104 % of control
T/C [3]: 100 % of control

O=C(c1ccccc1)C12CC3CC(CC(C3)C1)C2
T/C (dose: 6.25 mg/kg/injection, schedule: Q01DX009 (ip), vehicle: saline with Tween-80): 90 % of control and 98 % of control
T/C (dose: 12.5 mg/kg/injection, schedule: Q01DX009 (ip), vehicle: saline with Tween-80): 90 % of control
T/C (dose: 25.0 mg/kg/injection, schedule: Q01DX009 (ip), vehicle: saline with Tween-80): 90 % of control and 99 % of control
T/C [4]: 97 % of control
T/C [5]: 107 % of control

CCOC(=O)c1c[nH]c(=O)c([N+](=O)[O-])c1O
T/C [6]: 96 % of control
T/C [1]: 108 % of control
T/C [2]: 95 % of control
T/C [3]: 112 % of control

Oc1ccccc1-c1nnc2sc3c(Cl)c4nn5c(-c6ccccc6O)nnc5sc4c(Cl)c3nn12
T/C [4]: 98 % of control
T/C [6]: 98 % of control
T/C [5]: 96 % of control

CC1(C)C2C=CC1C(CO)(CO)C2 (centres undefined)
T/C [7]: 100 % of control
T/C [8]: 100 % of control
T/C [9]: 104 % of control
T/C [10]: 91 % of control
T/C [11]: 108 % of control
T/C [12]: 100 % of control

O=C(O)C1CCCN1C(=O)c1ccc(Cl)c(Cl)c1 (centres undefined)
T/C [13]: 100 % of control
T/C [14]: 93 % of control
T/C [15]: 99 % of control

CCCCN(c1ccccc1)c1ncnc2c1cnn2C
T/C [6]: 92 % of control and 100 % of control
T/C [1]: 100 % of control and 108 % of control
T/C [5]: 107 % of control
T/C [2]: 91 % of control and 100 % of control
T/C [16]: 96 % of control and 100 % of control
T/C [3]: 95 % of control and 100 % of control

COC1NC(=O)NC(=O)C1=[N+]=[N-] (centres undefined)
T/C (dose: 3.3 mg/kg/injection, schedule: Q01DX009 (ip), vehicle: saline with Tween-80): 170 % of control
T/C (dose: 5.0 mg/kg/injection, schedule: Q01DX009 (ip), vehicle: saline with Tween-80): 175 % of control

O=C(NC1CSSC1)C(Cc1ccccc1)N1C(=O)c2ccccc2C1=O (centres undefined)
T/C (dose: 25.0 mg/kg/injection, schedule: Q01DX009 (ip), vehicle: water): 104 % of control
T/C (dose: 25.0 mg/kg/injection, schedule: Q04DX003 (ip), vehicle: water): 90 % of control
T/C (dose: 50.0 mg/kg/injection, schedule: Q01DX009 (ip), vehicle: water): 95 % of control
T/C (dose: 50.0 mg/kg/injection, schedule: Q04DX003 (ip), vehicle: water): 107 % of control
T/C (dose: 100.0 mg/kg/injection, schedule: Q01DX009 (ip), vehicle: water): 108 % of control
T/C (dose: 100.0 mg/kg/injection, schedule: Q04DX003 (ip), vehicle: water): 98 % of control
T/C (dose: 200.0 mg/kg/injection, schedule: Q01DX009 (ip), vehicle: water): 108 % of control
T/C (dose: 200.0 mg/kg/injection, schedule: Q04DX003 (ip), vehicle: water): 100 % of control
T/C (dose: 400.0 mg/kg/injection, schedule: Q01DX009 (ip), vehicle: water): 100 % of control
T/C (dose: 400.0 mg/kg/injection, schedule: Q04DX003 (ip), vehicle: water): 98 % of control

O=C1CCCCCCC1Cc1cc(O)c(CC2CCCCCCC2=O)cc1O (centres undefined)
T/C [4]: 90 % of control
T/C [6]: 91 % of control
T/C [5]: 86 % of control

CC(C)(C)CC(C)(C)c1ccc(O)cc1
T/C [8]: 100 % of control
T/C [10]: 115 % of control
T/C [12]: 120 % of control

COc1cc2c(c(OC)c1OC)CCc1cnoc1-2
T/C [4]: 107 % of control
T/C [6]: 95 % of control
T/C [5]: 97 % of control
T/C [16]: 92 % of control

O=C1CN(CCc2ccccc2)CC(=O)N2C(c3ccccc3)CCCN12 (centres undefined)
T/C [13]: 94 % of control
T/C [14]: 97 % of control
T/C [15]: 97 % of control

NNC(=O)CCCCCC(=O)NN
T/C [7]: 100 % of control
T/C (dose: 100.0 mg/kg/injection, schedule: Q01DX009 (ip), vehicle: alcohol): 110 % of control
T/C [8]: 95 % of control
T/C [9]: 100 % of control
T/C (dose: 200.0 mg/kg/injection, schedule: Q01DX009 (ip), vehicle: alcohol): 95 % of control
T/C [10]: 113 % of control
T/C [11]: 100 % of control
T/C (dose: 400.0 mg/kg/injection, schedule: Q01DX009 (ip), vehicle: alcohol): 90 % of control
T/C [12]: 90 % of control

CN(C)CCCCc1cn(-c2ccccc2)c2ccccc12
T/C (dose: 12.5 mg/kg/injection, schedule: Q01DX009 (ip), vehicle: saline): 105 % of control
T/C (dose: 27.5 mg/kg/injection, schedule: Q01DX001 (ip), vehicle: saline): 100 % of control
T/C (dose: 33.0 mg/kg/injection, schedule: Q01DX009 (ip), vehicle: saline): 109 % of control
T/C (dose: 50.0 mg/kg/injection, schedule: Q01DX009 (ip), vehicle: saline): 104 % of control
T/C (dose: 55.0 mg/kg/injection, schedule: Q01DX001 (ip), vehicle: saline): 108 % of control
T/C (dose: 110.0 mg/kg/injection, schedule: Q01DX001 (ip), vehicle: saline): 108 % of control

COc1cc(C(=O)c2cocc2C(=O)c2ccc3c(c2)OCO3)cc(OC)c1OC
T/C (dose: 25.0 mg/kg/injection, schedule: Q01DX010 (ip), vehicle: saline): 108 % of control
T/C (dose: 50.0 mg/kg/injection, schedule: Q01DX010 (ip), vehicle: other): 123 % of control
T/C (dose: 50.0 mg/kg/injection, schedule: Q01DX010 (ip), vehicle: saline): 91 % of control
T/C (dose: 50.0 mg/kg/injection, schedule: Q01DX010 (ip), vehicle: water): 100 % of control
T/C (dose: 100.0 mg/kg/injection, schedule: Q01DX010 (ip), vehicle: other): 180 % of control
T/C (dose: 100.0 mg/kg/injection, schedule: Q01DX010 (ip), vehicle: saline): 86 % of control and 100 % of control
T/C (dose: 100.0 mg/kg/injection, schedule: Q01DX010 (ip), vehicle: water): 111 % of control
T/C (dose: 200.0 mg/kg/injection, schedule: Q01DX010 (ip), vehicle: other): 165 % of control
T/C (dose: 200.0 mg/kg/injection, schedule: Q01DX010 (ip), vehicle: saline): 90 % of control
T/C (dose: 200.0 mg/kg/injection, schedule: Q01DX010 (ip), vehicle: water): 155 % of control
T/C (dose: 400.0 mg/kg/injection, schedule: Q01DX010 (ip), vehicle: other): 173 % of control

OCC1OC(n2cnc3c(=S)nc[nH]c32)C(O)C1O (centres undefined)
T/C (dose: 20.0 mg/kg/injection, schedule: Q01DX010 (ip), vehicle: saline): 90 % of control
T/C (dose: 40.0 mg/kg/injection, schedule: Q01DX010 (ip), vehicle: saline): 100 % of control
T/C (dose: 80.0 mg/kg/injection, schedule: Q01DX010 (ip), vehicle: saline): 100 % of control
T/C (dose: 160.0 mg/kg/injection, schedule: Q01DX010 (ip), vehicle: saline): 95 % of control

CC[C@@]1(O)C[C@H](OC2CC(N(C)C)C(OC3CC(O)C(OC4CC(O)C(O)C(C)O4)C(C)O3)C(C)O2)c2c(cc3c(c2O)C(=O)c2c(O)ccc(O)c2C3=O)[C@H]1C(=O)OC (some centres undefined)
T/C (dose: 1.08 mg/kg/injection, schedule: Q04DX003 (ip), vehicle: water): 185 % of control
T/C (dose: 1.8 mg/kg/injection, schedule: Q04DX003 (ip), vehicle: water): 194 % of control
T/C (dose: 1.9 mg/kg/injection, schedule: Q01DX001 (ip), vehicle: other): 169 % of control
T/C (dose: 3.8 mg/kg/injection, schedule: Q01DX001 (ip), vehicle: other): 196 % of control
T/C (dose: 5.0 mg/kg/injection, schedule: Q04DX003 (ip), vehicle: water): 101 % of control
T/C (dose: 7.5 mg/kg/injection, schedule: Q01DX001 (ip), vehicle: other): 198 % of control

Cc1nc2c(sc(=N)n2-c2ccccc2)c(=O)[nH]1
T/C [4]: 114 % of control

CCOC(=O)c1sc(NC(C)=O)c(C(=O)OCC)c1C
T/C (dose: 100.0 mg/kg/injection, schedule: Q01DX009 (ip), vehicle: Klucel (hydroxypropylcellulose) (HPC)): 100 % of control
T/C (dose: 200.0 mg/kg/injection, schedule: Q01DX009 (ip), vehicle: Klucel (hydroxypropylcellulose) (HPC)): 100 % of control
T/C (dose: 400.0 mg/kg/injection, schedule: Q01DX009 (ip), vehicle: Klucel (hydroxypropylcellulose) (HPC)): 100 % of control

CS(=O)(=O)CC(O)(c1ccccc1)c1ccncc1 (centres undefined)
T/C [4]: 96 % of control
T/C [6]: 90 % of control
T/C [5]: 98 % of control

CC(C)=CCC/C(C)=C/CN1C(=O)c2ccccc2C1=O
T/C [6]: 92 % of control
T/C [1]: 87 % of control
T/C [5]: 92 % of control
T/C [2]: 96 % of control
T/C [16]: 108 % of control
T/C [3]: 94 % of control
